Data on six compounds can be found in patent US20250270199A1, “THIAZOLE DERIVATIVES AND METHODS OF USING THE SAME” (Arkansas State University - Jonesboro, priority 2022, published 2025).

The subject of experiment [1] is E. faecium ATCC 700221 (Efm 21). Put plainly: MIC, broth microdilution, Efm 21. The class given is cell-based. Conditions: Enterococcus faecium, ATCC700221, Table 2, HTM series; read-out: Minimum inhibitory concentration (MIC) Efm 21. The procedure:
(§1) The broth microdilution method was utilized to determine MIC values of novel thiazole derivatives against different clinically important Gram-positive bacteria according to the guidelines outlined by the Clinical and Laboratory Standards Institute (CLSI) as reported in our recent papers.^1-5 The starting concentration of compounds for MIC determination was 64 μg/mL serially diluted down the wells and the MIC values were recorded in duplicates in three independent experiments on different days.
Background: Broth dilution looks for growth in wells or tubes with falling amounts of substance.

Experiment [2] deals with S. epidermidis ATCC 700296 (Se). Put plainly: MIC, broth microdilution, Se. Conditions: Staphylococcus epidermidis, ATCC700296; Table 2, HTM series; read-out: Minimum inhibitory concentration (MIC) Se. It is filed as cell-based. Here is the method:
as §1

Experiment [3] relates to S. aureus ATCC 700699 (Sa 99). The experiment can be described thus: MIC, broth microdilution, Sa 99. It is filed as cell-based. Conditions: for MIC: Staphylococcus aureus, read-out: Minimum inhibitory concentration (MIC) Sa 99; for Minimum inhibitory concentration (MIC) Sa 99: Table 1, HT series. The procedure:
as §1

Experiment [4] has as its system S. aureus ATCC 25923 (Sa 23). Put plainly: MIC, broth microdilution, Sa 23. The class given is cell-based. Conditions: for MIC: Staphylococcus aureus, read-out: Minimum inhibitory concentration (MIC) Sa 23; for Minimum inhibitory concentration (MIC) Sa 23: Table 1, HT series. Here is the method:
as §1

The test system of experiment [5] is S. aureus ATCC 33592 (Sa 92). Put plainly: MIC, broth microdilution, Sa 92. The class given is cell-based. Conditions: Staphylococcus aureus, ATCC33592, read-out: Minimum inhibitory concentration (MIC) Sa 92. The procedure: as §1
Experiment [6] has as its system E. faecalis ATCC 51299 (Efs 99). The experiment can be described thus: MIC, broth microdilution, Efs 99. It is filed as cell-based. Conditions: Enterococcus faecalis, ATCC51299; Table 2, HTM series; read-out: Minimum inhibitory concentration (MIC) Efs 99. Here is the method: as §1
Experiment [7] has as its system S. aureus subsp. aureus Rosenbach ATCC 25904 (SA Newman). Put plainly: MIC, broth microdilution, SA Newman. It is filed as cell-based. Conditions: Staphylococcus aureus, read-out: Minimum inhibitory concentration (MIC) Sa Newman. The procedure: as §1
In experiment [8] the test system is E. faecalis ATCC 29212 (Efs 12). The experiment can be described thus: MIC, broth microdilution, Efs 12. It is filed as cell-based. Conditions: for MIC: Enterococcus faecalis, read-out: Minimum inhibitory concentration (MIC) Efs 12; for Minimum inhibitory concentration (MIC) Efs 12: Table 1, HT series. The procedure:
as §1

The test system of experiment [9] is S. aureus ATCC 33591 (Sa 91). Put plainly: MIC, broth microdilution, Sa 91. The class given is cell-based. Conditions: Staphylococcus aureus, ATCC33591, read-out: Minimum inhibitory concentration (MIC) Sa 91. The procedure: as §1
Experiment [10] deals with Sa UAMS-1 MRSA ATCC 49230 (Sa UAMS). Put plainly: MIC, broth microdilution, Sa UAMS. It is filed as cell-based, S. aureus. Conditions: Staphylococcus aureus. Here is the method:
as §1

Experiment [11] concerns S. aureus ATCC BAA-2312 (Sa 12). The experiment can be described thus: MIC, broth microdilution, Sa 12. Conditions: Staphylococcus aureus, ATCCBAA2312, read-out: Minimum inhibitory concentration (MIC) Sa 12. It is filed as cell-based. The procedure: as §1
Experiment [12] has as its system S. aureus subsp. aureus Rosenbach BAA-1717 (Sa USA 300). The experiment can be described thus: MIC, broth microdilution, Sa USA 300. It is filed as cell-based. Conditions: Staphylococcus aureus; Table 2, HTM series; read-out: Minimum inhibitory concentration (MIC) Sa USA 300. Here is the method: as §1
Experiment [13] has as its system S. aureus LAC MRSA (Sa LAC). Put plainly: MIC, broth microdilution, Sa LAC. It is filed as cell-based. Conditions: Staphylococcus aureus, Table 1, HT series, read-out: Minimum inhibitory concentration (MIC) Sa LAC. Here is the method: as §1
Where [14] appears, read: ATCC700699, Table 2, HTM series.
Where [15] appears, read: Table 2, HTM series, read-out: Minimum inhibitory concentration (MIC) Sa UAMS-1.
The mark [16] stands for this setting: ATCC700699, Table 1, HT series, replicates from different days separated by comma.
The mark [17] stands for this setting: replicates from different days separated by comma.
Setting [18] is: ATCC25923, Table 1, HT series, replicates from different days separated by comma.
Setting [19] is: ATCC29212, Table 1, HT series, replicates from different days separated by comma.
[20] abbreviates: Table 1, HT series, read-out: Minimum inhibitory concentration (MIC) Sa UAMS.

The structures appear in SMILES notation. Values after ≈ are worked out from the molar mass of the structure shown. Like-named read-outs stand apart in the source and are kept apart here. Bounds are passed on as bounds.

For the compound `Cc1ccc(Nc2nc(-c3ccc(O)cc3)cs2)cc1Cl` [Compound 67, 4-(2-((3-chloro-4-methylphenyl)amino)thiazol-4-yl)phenol], the MIC is 4 µg/mL (≈ 12.6 µM) in experiment [1]; 4 µg/mL (≈ 12.6 µM) in experiment [2]; 4 µg/mL (≈ 12.6 µM) in experiment [3] (setting [14]); 4 µg/mL (≈ 12.6 µM) in [4] (ATCC25923, Table 2, HTM series); 4 µg/mL (≈ 12.6 µM) in experiment [5] (Table 2, HTM series); 8 µg/mL (≈ 25.3 µM) in experiment [6]. In addition, the MIC came to 4 µg/mL (≈ 12.6 µM) in experiment [7] (Table 2, HTM series); 8 µg/mL (≈ 25.3 µM) in experiment [8] (ATCC29212, Table 2, HTM series); 8 µg/mL (≈ 25.3 µM) in experiment [9] (Table 2, HTM series); 4 µg/mL (≈ 12.6 µM) in experiment [10] (setting [15]); 4 µg/mL (≈ 12.6 µM) in [11] (Table 2, HTM series); 4 µg/mL (≈ 12.6 µM) in [12].
As to `Oc1ccc(-c2csc(-c3ccc(O)c(O)c3)n2)cc1` [Compound 8, 4-(4-(4-hydroxyphenyl)thiazol-2-yl)benzene-1,2-diol], the MIC is 16 µg/mL (≈ 56.1 µM) in experiment [3] (setting [16]); 16 µg/mL (≈ 56.1 µM) in experiment [4] (setting [18]); 32 µg/mL (≈ 112 µM) in experiment [5] (Table 1, HT series); 16 µg/mL (≈ 56.1 µM) in experiment [7] (Table 1, HT series); above 32 µg/mL in experiment [8] (setting [19]); 32 µg/mL (≈ 112 µM) in experiment [9] (Table 1, HT series). Moreover, the MIC turned out to be 32 µg/mL (≈ 112 µM) in [10] (setting [20]); 16 µg/mL (≈ 56.1 µM) in experiment [13]; 16 µg/mL (≈ 56.1 µM) in experiment [11] (Table 1, HT series). The “Minimum inhibitory concentration (MIC) Sa 99” value in experiment [3] (setting [17]) was 8 µg/mL (≈ 28 µM). The “Minimum inhibitory concentration (MIC) Sa 23” value in experiment [4] (setting [17]) is listed as 16, 16, 16 μg/mL. For the same compound, in experiment [8] (setting [17]), the “Minimum inhibitory concentration (MIC) Efs 12” value is on record as >32, >32, >32 μg/mL.
Regarding `Oc1ccc(-c2csc(Nc3cc(Cl)ccc3Cl)n2)cc1` [Compound 73, 4-(2-((2,5-dichlorophenyl)amino)thiazol-4-yl)phenol], the MIC in experiment [1] is 8 µg/mL (≈ 23.7 µM); in experiment [2], 4 µg/mL (≈ 11.9 µM); in [3] (setting [14]) it was 4 µg/mL (≈ 11.9 µM); in experiment [4] (ATCC25923, Table 2, HTM series) it was 4 µg/mL (≈ 11.9 µM); in experiment [5] (Table 2, HTM series), 4 µg/mL (≈ 11.9 µM); in experiment [6], 8 µg/mL (≈ 23.7 µM). Besides, the MIC in experiment [7] (Table 2, HTM series) came to 4 µg/mL (≈ 11.9 µM); in [8] (ATCC29212, Table 2, HTM series), 4 µg/mL (≈ 11.9 µM); in experiment [9] (Table 2, HTM series), 4 µg/mL (≈ 11.9 µM); in [10] (setting [15]), 4 µg/mL (≈ 11.9 µM); in experiment [11] (Table 2, HTM series) it was 4 µg/mL (≈ 11.9 µM); in experiment [12], 4 µg/mL (≈ 11.9 µM).
Take `Oc1ccc(-c2nc(-c3ccc4ccccc4c3)cs2)cc1O` [Compound 14, 4-(4-(naphthalen-2-yl)thiazol-2-yl)benzene-1,2-diol]: the MIC in experiment [3] (setting [16]) came to 2 µg/mL (≈ 6.26 µM); in experiment [4] (setting [18]), 2 µg/mL (≈ 6.26 µM); in [5] (Table 1, HT series) it was 8 µg/mL (≈ 25 µM); in experiment [7] (Table 1, HT series) it was 8 µg/mL (≈ 25 µM); in experiment [8] (setting [19]) it was 16 µg/mL (≈ 50.1 µM); in experiment [9] (Table 1, HT series), 8 µg/mL (≈ 25 µM). For the same compound, the MIC in experiment [10] (setting [20]) was determined as 8 µg/mL (≈ 25 µM); in [13] it was 4 µg/mL (≈ 12.5 µM); in experiment [11] (Table 1, HT series) it was 8 µg/mL (≈ 25 µM). Also, in experiment [3] (setting [17]), the “Minimum inhibitory concentration (MIC) Sa 99” value is 2, 2, 2 μg/mL. For the same compound, in experiment [4] (setting [17]), the “Minimum inhibitory concentration (MIC) Sa 23” value is 2, 2, 2 μg/mL. Moreover, the “Minimum inhibitory concentration (MIC) Efs 12” value in [8] (setting [17]) was 16, 16, 16 μg/mL.
For the compound `Oc1ccc(-c2csc(Nc3cc(Cl)c(Cl)cc3Cl)n2)cc1` [Compound 69, 4-(2-((2,4,5-trichlorophenyl)amino)thiazol-4-yl)phenol], the MIC in experiment [1] amounted to 4 µg/mL (≈ 10.8 µM); in [2] it was 8 µg/mL (≈ 21.5 µM); in [3] (setting [14]), 1 µg/mL (≈ 2.69 µM); in [4] (ATCC25923, Table 2, HTM series), 1 µg/mL (≈ 2.69 µM); in experiment [5] (Table 2, HTM series), 1 µg/mL (≈ 2.69 µM); in experiment [6], 4 µg/mL (≈ 10.8 µM). For the same compound, the MIC in experiment [7] (Table 2, HTM series) amounted to 4 µg/mL (≈ 10.8 µM); in experiment [8] (ATCC29212, Table 2, HTM series) it was 4 µg/mL (≈ 10.8 µM); in experiment [9] (Table 2, HTM series), 1 µg/mL (≈ 2.69 µM); in [10] (setting [15]), 4 µg/mL (≈ 10.8 µM); in experiment [11] (Table 2, HTM series), 1 µg/mL (≈ 2.69 µM); in [12] it was 4 µg/mL (≈ 10.8 µM).
As for `Oc1ccc(-c2csc(-c3ccc(Cl)c(Cl)c3)n2)cc1` [Compound 65, 4-(2-(3,4-dichlorophenyl)thiazol-4-yl)phenol], the MIC is 2 µg/mL (≈ 6.21 µM) in experiment [1]; 1 µg/mL (≈ 3.1 µM) in experiment [2]; 1 µg/mL (≈ 3.1 µM) in experiment [3] (setting [14]); 1 µg/mL (≈ 3.1 µM) in experiment [4] (ATCC25923, Table 2, HTM series); 1 µg/mL (≈ 3.1 µM) in experiment [5] (Table 2, HTM series); 2 µg/mL (≈ 6.21 µM) in experiment [6]. The MIC in experiment [7] (Table 2, HTM series) is 2 µg/mL (≈ 6.21 µM); in experiment [8] (ATCC29212, Table 2, HTM series), 2 µg/mL (≈ 6.21 µM); in experiment [9] (Table 2, HTM series), 1 µg/mL (≈ 3.1 µM); in experiment [10] (setting [15]), 2 µg/mL (≈ 6.21 µM); in experiment [11] (Table 2, HTM series), 1 µg/mL (≈ 3.1 µM); in experiment [12], 1 µg/mL (≈ 3.1 µM).
